Measured values as given in US8088761B2, “Enzyme inhibitors” (Cancer Research Technology Limited, priority 2005, dated 2012).
pIC50: −log10 of the molar value.

These molecules were tested against T1, Aurora-A (Homo sapiens, UniProt O14965) (assay: Flashplate Aurora A enzyme inhibition assay). Conditions: not given.
T1 sequence (O14965 1-403): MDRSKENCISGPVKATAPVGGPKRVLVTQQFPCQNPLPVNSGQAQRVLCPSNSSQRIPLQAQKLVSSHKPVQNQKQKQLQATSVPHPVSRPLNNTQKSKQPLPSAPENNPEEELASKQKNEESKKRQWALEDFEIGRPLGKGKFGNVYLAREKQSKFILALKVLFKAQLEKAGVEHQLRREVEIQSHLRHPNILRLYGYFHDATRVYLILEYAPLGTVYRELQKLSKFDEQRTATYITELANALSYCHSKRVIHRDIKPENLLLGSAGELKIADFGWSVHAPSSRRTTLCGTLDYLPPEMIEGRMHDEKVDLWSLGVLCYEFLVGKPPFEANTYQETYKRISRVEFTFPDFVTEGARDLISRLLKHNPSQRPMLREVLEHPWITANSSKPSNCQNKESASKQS
Type: biochemical
Method: Flashplate® Assay for Identification and Evaluation of Aurora-A Inhibitors
On this assay 384-well Basic Flashplate® (SMP400E, PerkinElmer) as solid assay platform was used. The plates were coated overnight at 4° C. with […] at 100 μg/ml in PBS buffer and used after being washed twice with PBS. 5 μl of compound in 2% DMSO was added to each well followed by 15 μl master mix of kinase buffer (50 mM Tris pH 7.5, 10 mM NaCl, 2.5 mM MgCl2, 1 mM […], 20 μM ATP, and 0.025 μCi/μl ^33P-ATP). Finally, 250 ng per well of Aurora-A enzyme was added. The plate was shaken for approximately 2 min on a flat-bed plate shaker (Wellmix, Denley, UK) and incubated for 2 hours at room temperature. The reaction was stopped by washing the plate twice on a 16-pin wash (ELX50 BioTek Instruments Ltd., Northstar, Bedford, UK) with 10 mM sodium pyrophosphate. The plate was then read on a TopCount-NX™ (PerkinElmer Life Sciences UK Ltd., Hounslow, UK).

SMILES	pIC50
CN(C)c1ccc(-c2nc3c(N4CCN(C(=O)Nc5ccccc5)CC4)c(Br)cnc3[nH]2)cc1 [Example 39, 4-(6-Bromo-2-(4-(dimethylamino)phenyl)-3H-imidazo[4,5-b]pyridin-7-yl)-N-phenylpiperazine-1-carboxamide]	> 6.30

Same assay, conditions: Flashplate assay; IC50 range; read-out: Aurora-A inhibition

pIC50	SMILES
> 6.30	CC(C)(C)OC(=O)NCc1cccc(-c2nc3c(N4CCN(Cc5cccnc5)CC4)c(Br)cnc3[nH]2)c1 [Example 91, tert-Butyl 3-(6-bromo-7-(4-(pyridin-3-ylmethyl)piperazin-1-yl)-3H-imidazo[4,5-b]pyridin-2-yl)benzylcarbamate]
> 6.30	COc1ccc(-c2nc3c(N4CCN(Cc5cccnc5)CC4)c(Br)cnc3[nH]2)cc1 [Example 28, 6-Bromo-2-(4-methoxyphenyl)-7-(4-(pyridin-3-ylmethyl)piperazin-1-yl)-3H-imidazo[4,5-b]pyridine]
> 6.30	Cc1nc(CN2CCN(c3c(Br)cnc4[nH]c(-c5ccc(CN6CCN(C(=O)OC(C)(C)C)CC6)cc5)nc34)CC2)cs1 [Example 157, tert-Butyl 4-(4-(6-bromo-7-(4-((2-methylthiazol-4-yl)methyl)piperazin-1-yl)-3H-imidazo[4,5-b]pyridin-2-yl)benzyl)piperazine-1-carboxylate]
> 6.30	CC(C)(C)OC(=O)N1CCN(c2ccc(-c3nc4c(N5CCN(Cc6cccnc6)CC5)c(Br)cnc4[nH]3)cc2)CC1 [Example 103, tert-Butyl 4-(4-(6-bromo-7-(4-(pyridin-3-ylmethyl)piperazin-1-yl)-3H-imidazo[4,5-b]pyridin-2-yl)phenyl)piperazine-1-carboxylate]
5.70 to 6.30	CC(C)(C)OC(=O)NCc1ccc(-c2nc3c(N4CCN(CC(=O)Nc5nccs5)CC4)c(Br)cnc3[nH]2)cc1 [Example 6, (4-{6-Bromo-7-[4-(thiazol-2-ylcarbamoylmethyl)-piperazin-1-yl]-3H-imidazo[4,5-b]pyridin-2-yl}-benzyl)-carbamic acid tert-butyl ester]
> 6.30	COc1ccc(-c2nc3c(N4CCN(Cc5csc(C(C)C)n5)CC4)c(Br)cnc3[nH]2)cc1 [Example 153, 4-((4-(6-Bromo-2-(4-methoxyphenyl)-3H-imidazo[4,5-b]pyridin-7-yl)piperazin-1-yl)methyl)-2-isopropylthiazole]
> 6.30	CC(C)c1nc(CN2CCN(c3c(Br)cnc4[nH]c(-c5ccc(CN6CCOCC6)cc5)nc34)CC2)co1 [Example 146, 4-(4-(6-Bromo-7-(4-((2-isopropyloxazol-4-yl)methyl)piperazin-1-yl)-3H-imidazo[4,5-b]pyridin-2-yl)benzyl)morpholine]
> 6.30	COc1ccc(-c2nc3c(N4CCN(Cc5nccs5)CC4)c(Br)cnc3[nH]2)cc1 [Example 151, 2-((4-(6-Bromo-2-(4-methoxyphenyl)-3H-imidazo[4,5-b]pyridin-7-yl)piperazin-1-yl)methyl)thiazole]
> 6.30	Cc1nc(CN2CCN(c3c(Br)cnc4[nH]c(-c5ccc(N6CCN(C(=O)OC(C)(C)C)CC6)cc5)nc34)CC2)cs1 [Example 158, tert-Butyl 4-(4-(6-bromo-7-(4-((2-methylthiazol-4-yl)methyl)piperazin-1-yl)-3H-imidazo[4,5-b]pyridin-2-yl)phenyl)piperazine-1-carboxylate]

More lines, now with the values behind:

SMILES	pIC50
CN(C)c1ccc(-c2nc3c(N4CCN(Cc5ccncc5)CC4)c(Br)cnc3[nH]2)cc1 [Example 31, 4-(6-Bromo-7-(4-(pyridin-4-ylmethyl)piperazin-1-yl)-3H-imidazo[4,5-b]pyridin-2-yl)-N,N-dimethylaniline]	> 6.30
Cn1ccnc1CN1CCN(c2c(Br)cnc3[nH]c(-c4ccc(CN5CCOCC5)cc4)nc23)CC1 [Example 166, 4-(4-(6-Bromo-7-(4-((1-methyl-1H-imidazol-2-yl)methyl)piperazin-1-yl)-3H-imidazo[4,5-b]pyridin-2-yl)benzyl)morpholine]	> 6.30
COc1ccc(-c2nc3c(N4CCN(Cc5c(C)noc5C)CC4)c(Br)cnc3[nH]2)cc1 [Example 127, 4-((4-(6-Bromo-2-(4-methoxyphenyl)-3H-imidazo[4,5-b]pyridin-7-yl)piperazin-1-yl)methyl)-3,5-dimethylisoxazole]	> 6.30
CN(C)c1ccc(-c2nc3c(N4CCNCC4)c(Br)cnc3[nH]2)cc1 [Example 15, [4-(6-Bromo-7-piperazin-1-yl-3H-imidazo[4,5-b]pyridin-2-yl)-phenyl]-dimethyl-amine]	> 6.30
CN(C)c1ccc(-c2nc3c(N4CCN(Cc5c(F)cccc5Cl)CC4)c(Cl)cnc3[nH]2)cc1 [Example 16, 4-(6-Chloro-7-(4-(2-chloro-6-fluorobenzyl)piperazin-1-yl)-3H-imidazo[4,5-b]pyridin-2-yl)-N,N-dimethylaniline]	5.70 to 6.30
CCN1CCN(c2c(Br)cnc3[nH]c(-c4ccc(N(C)C)cc4)nc23)CC1 [Example 47, 4-(6-Bromo-7-(4-ethylpiperazin-1-yl)-3H-imidazo[4,5-b]pyridin-2-yl)-N,N-dimethylaniline]	5.70 to 6.30
COc1ccc(C(=O)N2CCN(c3c(Cl)cnc4[nH]c(-c5ccc(N(C)C)cc5)nc34)CC2)cc1 [Example 18, (4-(6-Chloro-2-(4-(dimethylamino)phenyl)-3H-imidazo[4,5-b]pyridin-7-yl)piperazin-1-yl)(4-methoxyphenyl)methanone]	5.00 to 5.70
FC(F)(F)c1ccc(CN2CCN(c3c(Br)cnc4[nH]c(-c5ccc(N6CCOCC6)cc5)nc34)CC2)cn1 [Example 126, 4-(4-(6-Bromo-7-(4-((6-(trifluoromethyl)pyridin-3-yl)methyl)piperazin-1-yl)-3H-imidazo[4,5-b]pyridin-2-yl)phenyl)morpholine]	> 6.30
CCNC(=O)N1CCN(c2c(Br)cnc3[nH]c(-c4ccc(N(C)C)cc4)nc23)CC1 [Example 43, 4-(6-Bromo-2-(4-(dimethylamino)phenyl)-3H-imidazo[4,5-b]pyridin-7-yl)-N-ethylpiperazine-1-carboxamide]	> 6.30
CCOC(=O)C1CC1c1nc2c(N3CCN(CC(=O)Nc4nccs4)CC3)c(Br)cnc2[nH]1 (stereo not drawn) [Example 45, Ethyl 2-(6-bromo-7-(4-(2-oxo-2-(thiazol-2-ylamino)ethyl)piperazin-1-yl)-3H-imidazo[4,5-b]pyridin-2-yl)cyclopropanecarboxylate]	5.70 to 6.30
COc1ncccc1-c1nc2c(N3CCN(Cc4cccnc4)CC3)c(Br)cnc2[nH]1 [Example 55, 6-Bromo-2-(2-methoxypyridin-3-yl)-7-(4-(pyridin-3-ylmethyl)piperazin-1-yl)-3H-imidazo[4,5-b]pyridine]	5.70 to 6.30
CN(C)c1ccc(-c2nc3c(N4CCN(CCOc5ccccc5)CC4)c(Cl)cnc3[nH]2)cc1 [Example 9, (4-{6-Chloro-7-[4-(2-phenoxy-ethyl)-piperazin-1-yl]-3H-imidazo[4,5-b]pyridin-2-yl}-phenyl)-dimethyl-amine]	> 6.30
CN(C)c1ccc(-c2nc3c(N4CCN(c5ccccc5)CC4)c(Br)cnc3[nH]2)cc1 [Example 48, 4-(6-Bromo-7-(4-phenylpiperazin-1-yl)-3H-imidazo[4,5-b]pyridin-2-yl)-N,N-dimethylaniline]	> 6.30
CC(c1ccccc1)N1CCN(c2c(Br)cnc3[nH]c(-c4ccc(N5CCC(O)CC5)cc4)nc23)CC1 (stereo not drawn) [Example 88, 1-(4-{6-Bromo-7-[4-(1-phenyl-ethyl)-piperazin-1-yl]-3H-imidazo[4,5-b]pyridin-2-yl}-phenyl)-piperidin-4-ol]	> 6.30
CN(C)c1ccc(-c2nc3c(N4CCN(CCNC(=O)Nc5ccccc5)CC4)c(Br)cnc3[nH]2)cc1 [Example 41, 1-(2-(4-(6-Bromo-2-(4-(dimethylamino)phenyl)-3H-imidazo[4,5-b]pyridin-7-yl)piperazin-1-yl)ethyl)-3-phenylurea]	> 6.30

These molecules were tested on HCT116 cells (assay: Cell viability assay (MTT) in HCT116 cell line). Conditions: Homo sapiens, HCT-116, 72 hrs, IC50 range, read-out: HCT116 cell growth inhibition.
Type: cell-based
Method: Cell Viability Assay: Determination of IC50 of Aurora Inhibitors in HCT116 Cell Line Using MTT Assay. The effects of compounds of the Examples on cellular proliferation were determined using the MTT assay according to manufacturer's instructions (Sigma). Briefly, the human colon tumour cells HCT116, were seeded in triplicate into 96-well plates at 2500 cells/well 24 hours before treatment with a range of concentrations of Aurora inhibitors (0-50 μM). After 72 hrs, 15 μl/well of 0.5% 3-(4,5-dimethylthiazol-2-yl)-2,5-diphenyltetrazolium bromide (MTT) was added to the cells for 4 hrs at 37° C., the dye-stained viable cells were extracted by adding 150 μl/well of dimethyl sulphoxide (DMSO). […] The IC50 was calculated using the Prism software.

SMILES	pIC50
CN(C)c1ccc(-c2nc3c(N4CCN(Cc5ccncc5)CC4)c(Br)cnc3[nH]2)cc1 [Example 31, 4-(6-Bromo-7-(4-(pyridin-4-ylmethyl)piperazin-1-yl)-3H-imidazo[4,5-b]pyridin-2-yl)-N,N-dimethylaniline]	5.70 to 6.30
Cn1ccnc1CN1CCN(c2c(Br)cnc3[nH]c(-c4ccc(CN5CCOCC5)cc4)nc23)CC1 [Example 166, 4-(4-(6-Bromo-7-(4-((1-methyl-1H-imidazol-2-yl)methyl)piperazin-1-yl)-3H-imidazo[4,5-b]pyridin-2-yl)benzyl)morpholine]	5.70 to 6.30
COc1ccc(-c2nc3c(N4CCN(Cc5c(C)noc5C)CC4)c(Br)cnc3[nH]2)cc1 [Example 127, 4-((4-(6-Bromo-2-(4-methoxyphenyl)-3H-imidazo[4,5-b]pyridin-7-yl)piperazin-1-yl)methyl)-3,5-dimethylisoxazole]	5.70 to 6.30
COc1ccc(-c2nc3c(N4CCN(Cc5cccnc5)CC4)c(Br)cnc3[nH]2)cc1 [Example 28, 6-Bromo-2-(4-methoxyphenyl)-7-(4-(pyridin-3-ylmethyl)piperazin-1-yl)-3H-imidazo[4,5-b]pyridine]	5.70 to 6.30
Brc1cnc2[nH]c(-c3ccc(CN4CCOCC4)cc3)nc2c1N1CCN(Cc2ccncc2)CC1 [Example 68, 6-Bromo-2-(4-morpholin-4-ylmethyl-phenyl)-7-(4-pyridin-4-ylmethyl-piperazin-1-yl)-3H-imidazo[4,5-b]pyridine]	> 6.30
